We go through 25 molecules from US20230357162A1, “COMPOUNDS, COMPOSITIONS AND METHODS” (Denali Therapeutics Inc., priority 2020, published 2023).

The assay has as its system IL-1β secretion, THP-1 cells. The assay is described as follows: IL-1β secretion assay in PMA-differentiated THP-1 cells stimulated with LPS and nigericin (ELISA readout). Type of assay: cell-based. The following applies: Homo sapiens, THP-1, inhibition of IL-1β secretion, 25 ng/mL LPS then nigericin. The procedure:
Compounds as provided herein were tested in the following assay. Cell culture medium employed contained RPMI 1640 medium (89%), FBS (10%), Pen/Strep (1%), and 2-mercaptoethanol (0.05 mM). Freezing medium was made up of 90% FBS and 10% DMSO. THP-1 cells were removed from the liquid nitrogen and placed into a 37° C. water bath to thaw, until signs of ice dissipated. The cells were then added to 9 mL of warm cell culture medium and centrifuged for 5 minutes at 1000 rpm. The supernatant was discarded, and the cells were resuspended in new cell culture medium. THP-1 cells were then split and cultured in the cell culture medium, being passaged every 2-3 days with the cell density will be maintained between 5×10^5 and 1.5×10^6 viable cells/mL.
PMA was dissolved in DMSO to make a stock solution at 5 mg/ml and stored in 10 µl aliquots at -20° C. for single use. PMA is added to normal growth medium. LPS was diluted with 1 mL of water solution to provide a 1 mg/mL stock solution and stored in 15 µl aliquots at -20° C. for single use. Nigericin is diluted in ice cold 100% ethanol to 5 mg/ml (6.7 mM) and stored in 75 µL aliquots at -20° C. for single use. Serum-free media contains RPMI 1640 medium (99%), Pen/Strep (1%), and 2-mercaptoethanol (0.05 mM). The two control conditions used to qualify and normalize test compound dose-response curves were as follows: High Control = 25 ng/mL LPS, 5 µM Nigericin, 0.5% DMSO, Low Control = 25 ng/mL, LPS, 0.5% DMSO.
THP-1 cells were diluted to provide a suspension at a concentration of 1.0×10^6 cells/mL with the total volume of suspension required to enable the desired number of assay plates. The growth media was supplemented with PMA (5 ng/mL final concentration) and the cells were incubated at 37° C. under a humidified atmosphere of 5% CO2 for 40 h.
All media was carefully aspirated from each culture flask. The cells were washed carefully with 1x DPBS. The cells were then briefly digested with trypsin LE for 5 minutes at 23° C. and immediately resuspended in cell growth media. After resuspension, the cells were centrifuged at 1000 rpm for 3 minutes and the supernatant was discarded. The cells were resuspended in DPBS and once again centrifuged at 1000 rpm for 5 minutes. The supernatant was discarded and the cell pellet was resuspended in serum-free media supplemented with LPS (25 ng/mL final concentration) to enable the distribution of 30 K THP-1 cells within 45 µL of media into each well of 384-well PDL-coated plates. The 384-well plates were then incubated at 37° C. under a humidified atmosphere of 5% CO2 for 2 h. Following this period, test compounds were dispensed by Tecan across the desired concentration range with all wells normalized to a final 0.5 % DMSO concentration. The plates were then then incubated at 37° C. under a humidified atmosphere of 5% CO2 for 1 h. Following this period, 5 µL of the […] nigericin stock solution was added to each of the appropriate wells and plates were centrifuged at 1000 rpm for 30 seconds. The plates were the immediately reintroduced to the incubator at 37° C. under a humidified atmosphere of 5% CO2 for 2 h. After this time, 35 µL/well of supernatant was collected and transferred into v-bottom plate and centrifuged at 1000 rpm for 1 minute. These supernatant aliquots were analyzed using an IL-Iβ detection kit as described below. If needed, the test samples could be snap frozen and stored at -80° C. until analyzed.
To prepare each ELISA plate, capture antibody (mAb Mt175) was diluted with PBS to a final concentration of 2 µg/mL and then 20 µL of this solution was added to each well of the ELISA plate. Each plate was allowed to incubate overnight at 4° C. The next day, the capture antibody solution was removed and discarded. Each ELISA plate was washed 4 times with PBST followed by the addition of 25 µL/well of blocking buffer (Licor-927-40010) supplemented with 0.1% Tween 20. Each ELISA plate was then allowed to incubate for 1 hour at 23° C. […]
(In general: In an ELISA, binding on a coated surface is turned into a signal by an enzyme label.)

A value given as a limit tells only on which side of the number the result lay.

As a reminder, the IC50 is the concentration needed to halve the response being measured. Turning to `CC(C)c1nn(CC(=O)NC2(C)CCOCC2)c(=O)c2ccc(Br)cc12` [Example 44, 2-(6-bromo-1-oxo-4-propan-2-ylphthalazin-2-yl)-N-(4-methyloxan-4-yl)acetamide], the IC50 (class column of Table 3) lay in the range of 10 to 15 µM and the IC50 (numeric column of Table 3) was found to be 12.3 µM.

As for `CC(C)c1nn(CC(=O)Nc2ccc(C(F)(F)F)nc2)c(=O)c2ccc(Br)cc12` [Example 45, 2-(6-bromo-1-oxo-4-propan-2-ylphthalazin-2-yl)-N-[6-(trifluoromethyl)pyridin-3-yl]acetamide], the IC50 was less than 10 µM (class column of Table 3) and 1.19 µM (numeric column of Table 3).

As to `CC(C)c1nn(CC(=O)NC2CCCC2(F)F)c(=O)c2ccc(Br)cc12` (centres unmarked) [Example 46, 2-(6-bromo-1-oxo-4-propan-2-ylphthalazin-2-yl)-N-(2,2-difluorocyclopentyl)acet amide], the IC50 (class column of Table 3) was less than 10 µM and the IC50 (numeric column of Table 3) came out at 1.17 µM.

`CC(C)c1nn(CC(=O)NC2CCc3nncn3C2)c(=O)c2ccc(Br)cc12` (centres unmarked) [Example 47, 2-(6-bromo-1-oxo-4-propan-2-ylphthalazin-2-yl)-N-(5,6,7,8-tetrahydro-[1,2,4]triazolo[4,3-a]pyridin-6-yl)acetamide] had an IC50 (class column of Table 3) of less than 10 µM and an IC50 (numeric column of Table 3) of 2.55 µM.

Take `CC(C)c1nn(CC(=O)Nc2cnn(C3CCC3)c2)c(=O)c2ccc(Br)cc12` [Example 48, 2-(6-bromo-1-oxo-4-propan-2-ylphthalazin-2-yl)-N-(1-cyclobutylpyrazol-4-yl)acetamide]: the IC50 (class column of Table 3) is less than 10 µM and the IC50 (numeric column of Table 3) is 4.09 µM.

Take `CC(C)c1nn(CC(=O)Nc2ccnn2C)c(=O)c2ccc(Br)cc12` [Example 49, 2-(6-bromo-1-oxo-4-propan-2-ylphthalazin-2-yl)-N-(2-methylpyrazol-3-yl)acetamide]: the IC50 was less than 10 µM (class column of Table 3) and 1.7 µM (numeric column of Table 3).

On to `CC(C)c1nn(CC(=O)Nc2c(F)cnn2C)c(=O)c2ccc(Br)cc12` [Example 50, 2-(6-bromo-1-oxo-4-propan-2-ylphthalazin-2-yl)-N-(4-fluoro-2-methylpyrazol-3-yl)acetamide], for which the IC50 is, setting by setting: (class column of Table 3) more than 15 µM; (numeric column of Table 3) 27.5 µM.

On to `CC(C)c1nn(CC(=O)Nc2ccnc(C3CC3)n2)c(=O)c2ccc(Br)cc12` [Example 51, 2-(6-bromo-1-oxo-4-propan-2-ylphthalazin-2-yl)-N-(2-cyclopropylpyrimidin-4-yl)acetamide], for which the IC50 by setting is: (class column of Table 3) less than 10 µM; (numeric column of Table 3) 0.863 µM.

Turning to `CC(C)c1nn(CC(=O)NC2CCOC2)c(=O)c2ccc(Br)cc12` (centres unmarked) [Example 52, 2-(6-bromo-1-oxo-4-propan-2-ylphthalazin-2-yl)-N-(oxolan-3-yl)acetamide], the IC50 (class column of Table 3) is less than 10 µM and the IC50 (numeric column of Table 3) stood at 2.53 µM.

With `CC(C)c1nn(CC(=O)NC2CCOCC2)c(=O)c2ccc(Br)cc12` [Example 53, 2-(6-bromo-1-oxo-4-propan-2-ylphthalazin-2-yl)-N-(oxan-4-yl)acetamide], the IC50 runs as follows: (class column of Table 3) less than 10 µM; (numeric column of Table 3) 1.13 µM.

`CC(C)c1nn(CC(=O)NC2CC3(COC3)C2)c(=O)c2ccc(Br)cc12` [Example 54, 2-(6-bromo-1-oxo-4-propan-2-ylphthalazin-2-yl)-N-(2-oxaspiro[3.3]heptan-6-yl)acetamide]: the IC50 was less than 10 µM (class column of Table 3) and 0.349 µM (numeric column of Table 3).

Consider `CC(C)c1nn(CC(=O)Nc2cccnc2)c(=O)c2ccc(Br)cc12` [Example 55, 2-(6-bromo-1-oxo-4-propan-2-ylphthalazin-2-yl)-N-pyridin-3-ylacetamide], for which the IC50 runs as follows: (class column of Table 3) less than 10 µM; (numeric column of Table 3) 0.71 µM.

For the molecule `CC(C)c1nn(CC(=O)Nc2cncnc2)c(=O)c2ccc(Br)cc12` [Example 56, 2-(6-bromo-1-oxo-4-propan-2-ylphthalazin-2-yl)-N-pyrimidin-5-ylacetamide], the concentration for half-maximal inhibition (IC50) reads like this: (class column of Table 3) less than 10 µM; (numeric column of Table 3) 3.23 µM.

Consider `CC(C)c1nn(CC(=O)NCC2CCCOC2)c(=O)c2ccc(Br)cc12` (centres unmarked) [Example 57, 2-(6-bromo-1-oxo-4-propan-2-ylphthalazin-2-yl)-N-(oxan-3-ylmethyl)acetamide], for which the IC50 was less than 10 µM (class column of Table 3) and 4.4 µM (numeric column of Table 3).

Take `CC(C)c1nn(CC(=O)NCC2COCCN2C)c(=O)c2ccc(Br)cc12` (centres unmarked) [Example 58, 2-(6-bromo-1-oxo-4-propan-2-ylphthalazin-2-yl)-N-[(4-methylmorpholin-3-yl)methyl]acetamide]: the IC50 (class column of Table 3) is less than 10 µM and half-maximal inhibition (numeric column of Table 3) (IC50) required 3.99 µM.

`CC(C)c1nn(CC(=O)Nc2ccc(C#N)cc2F)c(=O)c2ccc(Br)cc12` [Example 59, 2-(6-bromo-1-oxo-4-propan-2-ylphthalazin-2-yl)-N-(4-cyano-2-fluorophenyl)acetamide]: the IC50 is less than 10 µM (class column of Table 3) and 0.457 µM (numeric column of Table 3).

`CC(C)c1nn(CC(=O)NC2CCOC(C)(C)C2)c(=O)c2ccc(Br)cc12` (centres unmarked) [Example 60, 2-(6-bromo-1-oxo-4-propan-2-ylphthalazin-2-yl)-N-(2,2-dimethyloxan-4-yl)acetamide]: the IC50 is, setting by setting: (class column of Table 3) less than 10 µM; (numeric column of Table 3) 1.41 µM.

Turning to `CC(C)c1nn(CC(=O)Nc2ccc3cnn(C)c3c2)c(=O)c2ccc(Br)cc12` [Example 61, 2-(6-bromo-1-oxo-4-propan-2-ylphthalazin-2-yl)-N-(1-methylindazol-6-yl)acetamide], the IC50 is, setting by setting: (class column of Table 3) less than 10 µM; (numeric column of Table 3) 0.943 µM.

Turning to `CC(C)c1nn(CC(=O)Nc2nn(C)cc2F)c(=O)c2ccc(Br)cc12` [Example 62, 2-(6-bromo-1-oxo-4-propan-2-ylphthalazin-2-yl)-N-(4-fluoro-1-methylpyrazol-3-yl)acetamide], the IC50 was 10 to 15 µM (class column of Table 3) and 10.3 µM (numeric column of Table 3).

Take `Cc1cnn(C)c1NC(=O)Cn1nc(C(C)C)c2cc(Br)ccc2c1=O` [Example 63, 2-(6-bromo-1-oxo-4-propan-2-ylphthalazin-2-yl)-N-(2,4-dimethylpyrazol-3-yl)acetamide]: the IC50 is, setting by setting: (class column of Table 3) 10 to 15 µM; (numeric column of Table 3) 12.8 µM.

As to `Cc1cc(NC(=O)Cn2nc(C(C)C)c3cc(Br)ccc3c2=O)n(C)n1` [Example 64, 2-(6-bromo-1-oxo-4-propan-2-ylphthalazin-2-yl)-N-(2,5-dimethylpyrazol-3-yl)acetamide], the IC50 is, setting by setting: (class column of Table 3) less than 10 µM; (numeric column of Table 3) 0.392 µM.

As to `CC(C)c1nn(CC(=O)NCC2CN(C)CCO2)c(=O)c2ccc(Br)cc12` (centres unmarked) [Example 65, 2-(6-bromo-1-oxo-4-propan-2-ylphthalazin-2-yl)-N-[(4-methylmorpholin-2-yl)methyl]acetamide], the IC50 (class column of Table 3) is more than 15 µM and inhibition (numeric column of Table 3) was half-maximal at 22.7 µM (IC50).

For the molecule `CC(C)c1nn(CC(=O)NC2CCC(=O)N(C)C2)c(=O)c2ccc(Br)cc12` (centres unmarked) [Example 66, 2-(6-bromo-1-oxo-4-propan-2-ylphthalazin-2-yl)-N-(1-methyl-6-oxopiperidin-3-yl)acetamide], the IC50 reads like this: (class column of Table 3) less than 10 µM; (numeric column of Table 3) 2.44 µM.

For the molecule `CC(C)c1nn(CC(=O)Nc2ccnn2C2COC2)c(=O)c2ccc(Br)cc12` [Example 67, 2-(6-bromo-1-oxo-4-propan-2-ylphthalazin-2-yl)-N-[2-(oxetan-3-yl)pyrazol-3-yl]acetamide], the IC50 was less than 10 µM (class column of Table 3) and 1.03 µM (numeric column of Table 3).

`CC(C)c1nn(CC(=O)Nc2ncc(Cl)cc2F)c(=O)c2ccc(Br)cc12` [Example 68, 2-(6-bromo-1-oxo-4-propan-2-ylphthalazin-2-yl)-N-(5-chloro-3-fluoropyridin-2-yl)acetamide] displayed an IC50 (class column of Table 3) of less than 10 µM and an IC50 (numeric column of Table 3) of 0.11 µM.
